{"source": "PubChem BioAssay AID2060500", "about": "(Molecular Pharmacology Branch, DTP, NCI, 2025);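 note: spheroids exposed to drugs for 7 days before viability reading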", "system": "596521-263-R-J1-PDC complex spheroids, viability % of control", "experiment": "Anticancer human tumor 596521-263-R-J1-PDC patient-derived soft tissue sarcoma cell line growth inhibition [GQUAD]", "settings": "for IC50: curve of first compound; for viability, T/C: stronger effect = lower value", "excerpt": "DNA G-quadruplex Stabilizer Agents in Combinations in Complex Spheroids\nA high-throughput screen of multi-cell type tumor spheroids was designed to identify active combinations of DNA G-quadruplex stabilizer agents and targeted small molecules. Complex spheroids include a stromal component modeled by human endothelial cells (HUVEC) and fibroblasts modeled by human mesenchymal stem cells (MSCs). The concentration ranges selected for each drug and investigational agent were based upon clinically achievable concentrations if the clinical Cmax of the agent was known.\nCompounds. The drugs and investigational agents: pidnarulex (CX-5461; NSC782164), APTO-253 (NSC789042), BRACO-19 (NSC847499), peposertib (NSC802822), ceralasertib (NSC780249), elimusertib (NSC800525), camonsertib (NSC841442), AZD-1390 (NSC803789), olaparib (NSC753686), talazoparib (NSC767125), ART-558 (NSC835418), sotorasib (NSC818433), MRTX-1133 (NSC836407), SN-38 (NSC673596), topotecan (NSC609699), etoposide (NSC141540), doxorubicin (NSC123127), gemcitabine (NSC613327), 5-fluorouracil (NSC19893), paclitaxel (NSC125973), vemurafenib (NSC761431), panobinostat (NSC761190), R-306465 (JNJ-16241199; NSC773264), adavosertib (NSC754352), TP-3654 (NSC805149), carboplatin (NSC241240), KSQ-4279 (NSC840948), and staurosporine (NSC755774) were obtained from the National Cancer Institute (NCI) Developmental Therapeutics Program Chemical Repository (34). The FDA-approved anticancer drug set is available from the NCI Developmental Therapeutics Program. […] The stock solutions were prepared in dimethyl sulfoxide (DMSO, Sigma-Aldrich, St. Louis, MO, cat. D2650) at 800-fold the tested concentration and stored at -70 degrees C prior to their use. All drugs and investigational agents were tested over a range starting from a high concentration at or near the clinical Cmax and decreasing in half-log increments. If the clinical Cmax for an agent had not been determined, the highest concentration tested was 10 microM.\n2.3 Cell Culture. All cells were maintained in an incubator at 37 degrees C and 5% CO2 with 95% humidity. The PDC lines were cultured according to standard operating procedures established by the NCI PDMR. All PDCs were thawed and cultured in Matrigel-coated flasks prepared with a working solution of 1X Ham's F-12 nutrient mix, without supplementation (Invitrogen, cat. 11765054), 100 U/mL penicillin-streptomycin (Invitrogen, cat. 15140122), and 2.5% Matrigel (Corning Inc., cat. 354248) for the first three passages. The 857933-349-R-J2-PDC line was cultured in 6C/Colon 1B media, which includes advanced DMEM/F-12 (Thermo Fisher Scientific, cat. 12634028), 10 mM HEPES (Thermo Fisher Scientific, cat. 15630080), 1X GlutaMAX supplement (Thermo Fisher Scientific, cat. 35050061), 0.1 mg/mL primocin (InvivoGen, cat. ant-pm-2), 10% defined fetal bovine serum, heat inactivated (HyClone Laboratories Inc., cat. SH30070.03HI), 50% L-WRN conditioned media (ATCC, cat. CRL-3276), 1.25 mM N-Acetyl-L-cysteine (Sigma-Aldrich, cat. A9165), 10 mM nicotinamide (Sigma-Aldrich, cat. N0636), 1X B-27 supplement (Thermo Fisher Scientific, cat. 17504044), 1X N-2 supplement (Thermo Fisher Scientific, cat. 17502048), 10 microM Y-27632 dihydrochloride (Tocris Bioscience, cat. 1254), and 50 ng/mL human EGF recombinant protein (Thermo Fisher Scientific, cat. PHG0311). The 485176-168-R4-J1-PDC line was cultured in Panc media, which includes all 6C/Colon 1B media components plus 100 ng/mL human FGF-10 (Thermo Fisher Scientific, cat. 100-26), 500 nM SB-431542 (Selleckchem, cat. S1067), and gastrin (Tocris, cat. 3006).\n[…]"}
{"smiles": "C=CCn1c(=O)c2cnc(Nc3ccc(N4CCN(C)CC4)cc3)nc2n1-c1cccc(C(C)(C)O)n1", "note": "+ Cc1[nH]c2ccc(F)cc2c1-c1nc2c3cccnc3c3ncccc3c2[nH]1", "values": [{"measurement": "IC50", "setting": "second compound 0.0316 µM", "value": 5.81, "unit": "µM"}, {"measurement": "IC50", "setting": "second compound 0.1 µM", "value": 5.31, "unit": "µM"}, {"measurement": "IC50", "setting": "second compound 0.316 µM", "value": 5.46, "unit": "µM"}, {"measurement": "IC50", "setting": "second compound 1 µM", "value": 5.29, "unit": "µM"}, {"measurement": "IC50", "setting": "second compound 3.16 µM", "value": 5.68, "unit": "µM"}, {"measurement": "IC50", "setting": "second compound 10 µM", "value": 5.57, "unit": "µM"}, {"measurement": "viability, T/C", "setting": "second compound 0.0316 µM, first compound 0.0316 µM", "value": 99.1, "unit": "%"}, {"measurement": "viability, T/C", "setting": "second compound 0.0316 µM, first compound 0.1 µM", "value": 97.8, "unit": "%"}, {"measurement": "viability, T/C", "setting": "second compound 0.0316 µM, first compound 0.316 µM", "value": 92.5, "unit": "%"}, {"measurement": "viability, T/C", "setting": "second compound 0.0316 µM, first compound 1 µM", "value": 88, "unit": "%"}, {"measurement": "viability, T/C", "setting": "second compound 0.0316 µM, first compound 3.16 µM", "value": 69.9, "unit": "%"}, {"measurement": "viability, T/C", "setting": "second compound 0.0316 µM, first compound 10 µM", "value": 32, "unit": "%"}, {"measurement": "viability, T/C", "setting": "second compound 0.1 µM, first compound 0.0316 µM", "value": 120, "unit": "%"}, {"measurement": "viability, T/C", "setting": "second compound 0.1 µM, first compound 0.1 µM", "value": 91.6, "unit": "%"}, {"measurement": "viability, T/C", "setting": "second compound 0.1 µM, first compound 0.316 µM", "value": 92.5, "unit": "%"}, {"measurement": "viability, T/C", "setting": "second compound 0.1 µM, first compound 1 µM", "value": 94.7, "unit": "%"}, {"measurement": "viability, T/C", "setting": "second compound 0.1 µM, first compound 3.16 µM", "value": 64.8, "unit": "%"}, {"measurement": "viability, T/C", "setting": "second compound 0.1 µM, first compound 10 µM", "value": 30, "unit": "%"}, {"measurement": "viability, T/C", "setting": "second compound 0.316 µM, first compound 0.0316 µM", "value": 110, "unit": "%"}, {"measurement": "viability, T/C", "setting": "second compound 0.316 µM, first compound 0.1 µM", "value": 88.3, "unit": "%"}, {"measurement": "viability, T/C", "setting": "second compound 0.316 µM, first compound 0.316 µM", "value": 81.7, "unit": "%"}, {"measurement": "viability, T/C", "setting": "second compound 0.316 µM, first compound 1 µM", "value": 84.5, "unit": "%"}, {"measurement": "viability, T/C", "setting": "second compound 0.316 µM, first compound 3.16 µM", "value": 70.3, "unit": "%"}, {"measurement": "viability, T/C", "setting": "second compound 0.316 µM, first compound 10 µM", "value": 31.2, "unit": "%"}, {"measurement": "viability, T/C", "setting": "second compound 1 µM, first compound 0.0316 µM", "value": 102, "unit": "%"}, {"measurement": "viability, T/C", "setting": "second compound 1 µM, first compound 0.1 µM", "value": 88.8, "unit": "%"}, {"measurement": "viability, T/C", "setting": "second compound 1 µM, first compound 0.316 µM", "value": 86.7, "unit": "%"}, {"measurement": "viability, T/C", "setting": "second compound 1 µM, first compound 1 µM", "value": 90.2, "unit": "%"}, {"measurement": "viability, T/C", "setting": "second compound 1 µM, first compound 3.16 µM", "value": 64.3, "unit": "%"}, {"measurement": "viability, T/C", "setting": "second compound 1 µM, first compound 10 µM", "value": 31.3, "unit": "%"}, {"measurement": "viability, T/C", "setting": "second compound 3.16 µM, first compound 0.0316 µM", "value": 83.7, "unit": "%"}, {"measurement": "viability, T/C", "setting": "second compound 3.16 µM, first compound 0.1 µM", "value": 85, "unit": "%"}, {"measurement": "viability, T/C", "setting": "second compound 3.16 µM, first compound 0.316 µM", "value": 92.1, "unit": "%"}, {"measurement": "viability, T/C", "setting": "second compound 3.16 µM, first compound 1 µM", "value": 86.2, "unit": "%"}, {"measurement": "viability, T/C", "setting": "second compound 3.16 µM, first compound 3.16 µM", "value": 66.8, "unit": "%"}, {"measurement": "viability, T/C", "setting": "second compound 3.16 µM, first compound 10 µM", "value": 33.7, "unit": "%"}, {"measurement": "viability, T/C", "setting": "second compound 10 µM, first compound 0.0316 µM", "value": 90.3, "unit": "%"}, {"measurement": "viability, T/C", "setting": "second compound 10 µM, first compound 0.1 µM", "value": 82.2, "unit": "%"}, {"measurement": "viability, T/C", "setting": "second compound 10 µM, first compound 0.316 µM", "value": 84.5, "unit": "%"}, {"measurement": "viability, T/C", "setting": "second compound 10 µM, first compound 1 µM", "value": 79.2, "unit": "%"}, {"measurement": "viability, T/C", "setting": "second compound 10 µM, first compound 3.16 µM", "value": 69.4, "unit": "%"}, {"measurement": "viability, T/C", "setting": "second compound 10 µM, first compound 10 µM", "value": 31.2, "unit": "%"}]}
